These results are taken from US9085605B2, “Chemical synthesis and anti-tumor and anti-metastatic effects of dual functional conjugate” (Shenzhen Salubris Pharmaceuticals Co., Ltd., priority 2010, dated 2015).

The test system of one assay is 60 human tumor cell lines. Nature of the assay: NCI screening of antitumor activity in vitro in 60 human tumor cell lines. It counts as cell-based. The text has this: The experimental results refer to FIGS. 1-12.
On to `CC(=O)O[C@@]12CO[C@@H]1C[C@H](O)[C@@]1(C)C(=O)[C@H](O)C3=C(C)[C@@H](OC(=O)[C@H](OC(=O)CCC(=O)NCCCCC(NC(=O)CC[C@H](NC(=O)C(C)NC(=O)/C=C/c4ccc(Cl)cc4)C(N)=O)C(N)=O)[C@@H](NC(=O)OC(C)(C)C)c4ccccc4)C[C@@](O)([C@@H](OC(=O)c4ccccc4)[C@H]21)C3(C)C` (stereo partly drawn) [MDC-400], for which the “50% growth inhibition (GI50) activity” value is reported as “in the same magnitude range as paclitaxel”.

On to `CC(=O)O[C@H]1C(=O)[C@@]2(C)[C@H]([C@H](OC(=O)c3ccccc3)[C@]3(O)C[C@H](OC(=O)[C@H](OC(=O)CCC(=O)NCCCCC(NC(=O)CC[C@H](NC(=O)C(C)NC(=O)c4ccc5ccccc5n4)C(N)=O)C(N)=O)[C@@H](NC(=O)c4ccccc4)c4ccccc4)C(C)=C1C3(C)C)[C@]1(OC(C)=O)CO[C@@H]1C[C@@H]2O` (stereo partly drawn) [MTC-213], for which the “50% growth inhibition (GI50) activity” value is reported as “in the same magnitude range as paclitaxel”. Consider `CC(=O)O[C@H]1C(=O)[C@@]2(C)[C@H]([C@H](OC(=O)c3ccccc3)[C@]3(O)C[C@H](OC(=O)[C@H](OC(=O)CCC(=O)NCCCCC(NC(=O)CC[C@H](NC(=O)C(C)NC(=O)/C=C/c4cccs4)C(N)=O)C(N)=O)[C@@H](NC(=O)c4ccccc4)c4ccccc4)C(C)=C1C3(C)C)[C@]1(OC(C)=O)CO[C@@H]1C[C@@H]2O` (stereo partly drawn) [MTC-219], for which the “50% growth inhibition (GI50) activity” value is “in the same magnitude range as paclitaxel”. Turning to `CC(=O)O[C@H]1C(=O)[C@@]2(C)[C@H]([C@H](OC(=O)c3ccccc3)[C@]3(O)C[C@H](OC(=O)[C@H](OC(=O)CCC(=O)NCCCCC(NC(=O)CC[C@H](NC(=O)C(C)NC(=O)COc4cccc5ccccc45)C(N)=O)C(N)=O)[C@@H](NC(=O)c4ccccc4)c4ccccc4)C(C)=C1C3(C)C)[C@]1(OC(C)=O)CO[C@@H]1C[C@@H]2O` (stereo partly drawn) [MTC-233], the “50% growth inhibition (GI50) activity” value is on record as “in the same magnitude range as paclitaxel”. As to `CC(=O)O[C@H]1C(=O)[C@@]2(C)[C@H]([C@H](OC(=O)c3ccccc3)[C@]3(O)C[C@H](OC(=O)[C@H](OC(=O)CCC(=O)NCCCCC(NC(=O)CC[C@H](NC(=O)C(C)NC(=O)/C=C/c4ccc(C)cc4)C(N)=O)C(N)=O)[C@@H](NC(=O)c4ccccc4)c4ccccc4)C(C)=C1C3(C)C)[C@]1(OC(C)=O)CO[C@@H]1C[C@@H]2O` (stereo partly drawn) [MTC-302], the “50% growth inhibition (GI50) activity” value is on record as “in the same magnitude range as paclitaxel”.

A further assay concerns 10 human tumor cell lines. Nature of the assay: Antitumor activity screening in 10 human tumor cell lines. It counts as cell-based. The text has this:
In the invention, the compounds, MTC-301, MTC-302, MTC-303, MTC-304, MTC-305, MTC-306, MTC-307, MDC-308, MDC-403, MDC-404, MDC-405. MDC-406, MDC-407 and MDC-408 were screened their antitumor activity in 10 human tumor cell lines. […] The experimental results refer to FIGS. 13-16.
With `CC(=O)O[C@H]1C(=O)[C@@]2(C)[C@H]([C@H](OC(=O)c3ccccc3)[C@]3(O)C[C@H](OC(=O)[C@H](OC(=O)CCC(=O)NCCCCC(NC(=O)CC[C@H](NC(=O)C(C)NC(=O)/C=C/c4ccc(C)cc4)C(N)=O)C(N)=O)[C@@H](NC(=O)c4ccccc4)c4ccccc4)C(C)=C1C3(C)C)[C@]1(OC(C)=O)CO[C@@H]1C[C@@H]2O` (stereo partly drawn) [MTC-302], the “50% growth inhibition (GI50) activity” value was “in the same magnitude range as paclitaxel or docetaxel”.

For `CC(=O)O[C@H]1C(=O)[C@@]2(C)[C@H]([C@H](OC(=O)c3ccccc3)[C@]3(O)C[C@H](OC(=O)[C@H](OC(=O)CCC(=O)NCCCCC(NC(=O)CC[C@H](NC(=O)C(C)NC(=O)/C=C/c4ccc(F)cc4F)C(N)=O)C(N)=O)[C@@H](NC(=O)c4ccccc4)c4ccccc4)C(C)=C1C3(C)C)[C@]1(OC(C)=O)CO[C@@H]1C[C@@H]2O` (stereo partly drawn) [MTC-303], the “50% growth inhibition (GI50) activity” value is “in the same magnitude range as paclitaxel or docetaxel”. On the same count and under the same terms, for `CC(=O)O[C@H]1C(=O)[C@@]2(C)[C@H]([C@H](OC(=O)c3ccccc3)[C@]3(O)C[C@H](OC(=O)[C@H](OC(=O)CCC(=O)NCCCCC(NC(=O)CC[C@H](NC(=O)C(C)NC(=O)/C=C/c4ccc(Cl)cc4F)C(N)=O)C(N)=O)[C@@H](NC(=O)c4ccccc4)c4ccccc4)C(C)=C1C3(C)C)[C@]1(OC(C)=O)CO[C@@H]1C[C@@H]2O` (stereo partly drawn) [MTC-304] the value was “in the same magnitude range as paclitaxel or docetaxel”; for `CC(=O)O[C@H]1C(=O)[C@@]2(C)[C@H]([C@H](OC(=O)c3ccccc3)[C@]3(O)C[C@H](OC(=O)[C@H](OC(=O)CCC(=O)NCCCCC(NC(=O)CC[C@H](NC(=O)C(C)NC(=O)/C=C/c4ccc(F)cc4Cl)C(N)=O)C(N)=O)[C@@H](NC(=O)c4ccccc4)c4ccccc4)C(C)=C1C3(C)C)[C@]1(OC(C)=O)CO[C@@H]1C[C@@H]2O` (stereo partly drawn) [MTC-305], “in the same magnitude range as paclitaxel or docetaxel”. Still for that read-out and setting: as for `CC(=O)O[C@H]1C(=O)[C@@]2(C)[C@H]([C@H](OC(=O)c3ccccc3)[C@]3(O)C[C@H](OC(=O)[C@H](OC(=O)CCC(=O)NCCCCC(NC(=O)CC[C@H](NC(=O)C(C)NC(=O)/C=C/c4ccc(F)cc4)C(N)=O)C(N)=O)[C@@H](NC(=O)c4ccccc4)c4ccccc4)C(C)=C1C3(C)C)[C@]1(OC(C)=O)CO[C@@H]1C[C@@H]2O` (stereo partly drawn) [MTC-306], the entry is “in the same magnitude range as paclitaxel or docetaxel”; as for `CC(=O)O[C@H]1C(=O)[C@@]2(C)[C@H]([C@H](OC(=O)c3ccccc3)[C@]3(O)C[C@H](OC(=O)[C@H](OC(=O)CCC(=O)NCCCCC(NC(=O)CC[C@H](NC(=O)C(C)NC(=O)/C=C/c4cccc(F)c4)C(N)=O)C(N)=O)[C@@H](NC(=O)c4ccccc4)c4ccccc4)C(C)=C1C3(C)C)[C@]1(OC(C)=O)CO[C@@H]1C[C@@H]2O` (stereo partly drawn) [MTC-307], “in the same magnitude range as paclitaxel or docetaxel”; as for `CC(=O)O[C@H]1C(=O)[C@@]2(C)[C@H]([C@H](OC(=O)c3ccccc3)[C@]3(O)C[C@H](OC(=O)[C@H](OC(=O)CCC(=O)NCCCCC(NC(=O)CC[C@H](NC(=O)C(C)NC(=O)/C=C/c4ccc(F)c(F)c4)C(N)=O)C(N)=O)[C@@H](NC(=O)c4ccccc4)c4ccccc4)C(C)=C1C3(C)C)[C@]1(OC(C)=O)CO[C@@H]1C[C@@H]2O` (stereo partly drawn) [MTC-308], “in the same magnitude range as paclitaxel or docetaxel”.
